Reference: PubChem BioAssay (NCI)
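Assay format: 96-well plates, 48-hour exposure. At the GI50, growth is halved. Definition used: TGI = concentration required for complete inhibition of growth.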

Legend:
Assay in all cases: growth of human tumour cells (NCI), 48 h
KM12 colon = tested on: KM12 colon
NCI-H23 lung = tested on: NCI-H23 lung
LOX IMVI melanoma = tested on: LOX IMVI melanoma
K-562 leukemia = tested on: K-562 leukemia
SK-OV-3 ovarian = tested on: SK-OV-3 ovarian
HCC-2998 colon = tested on: HCC-2998 colon
HOP-92 NSCLC = tested on: HOP-92 NSCLC
DU-145 prostate = tested on: DU-145 prostate
NCI/ADR-RES ovarian = tested on: NCI/ADR-RES ovarian
IGROV1 ovarian = tested on: IGROV1 ovarian

SMILES | GI50 (KM12 colon) | TGI (KM12 colon) | GI50 (NCI-H23 lung) | TGI (NCI-H23 lung) | GI50 (LOX IMVI melanoma) | TGI (LOX IMVI melanoma) | GI50 (K-562 leukemia) | TGI (K-562 leukemia) | GI50 (SK-OV-3 ovarian) | TGI (SK-OV-3 ovarian) | GI50 (HCC-2998 colon) | TGI (HCC-2998 colon) | GI50 (HOP-92 NSCLC) | TGI (HOP-92 NSCLC) | GI50 (DU-145 prostate) | TGI (DU-145 prostate) | GI50 (NCI/ADR-RES ovarian) | TGI (NCI/ADR-RES ovarian) | GI50 (IGROV1 ovarian) | TGI (IGROV1 ovarian)
COc1ccc(/C=C2\CN(Cc3cn(CCCNc4ccnc5cc(Cl)ccc45)nn3)C/C(=C\c3ccc(OC)c(OC)c3)C2=O)cc1OC | 0.304 µM | 1.07 µM | 2.36 µM | 7.26 µM | 1.08 µM | 2.43 µM | 0.459 µM | 3.64 µM | 2.45 µM | 11.1 µM | 1.41 µM | 2.9 µM | 1.45 µM | 5.19 µM | 1.1 µM | 2.31 µM | > 100 µM | > 100 µM | 1.05 µM | 2.41 µM
CN[C@]12CC3(C=CC(=O)C=C3)O[C@@]1(Cc1ccc(OC)cc1)N(C)C(=O)N2 | 1.69 µM | 3.54 µM | 2.88 µM | 9.35 µM | 1.56 µM | 3.2 µM | 1.58 µM | > 100 µM | 5.12 µM | 44.2 µM | 1.93 µM | 3.61 µM | 2.15 µM | 4.73 µM | 4.3 µM | 14.9 µM | 3.46 µM | > 100 µM | 1.78 µM | 4.1 µM
CCN(CC)CCOc1ccc(/C(=C(\C)Cc2ccc(OC)cc2)c2ccc(OC(=O)NCc3ccccc3)cc2)cc1 | 1.87 µM | 3.89 µM | 3.24 µM | 13.3 µM | 1.59 µM | 3 µM | 1.75 µM | 4.52 µM | 5.11 µM | 18.7 µM | 1.84 µM | 3.62 µM | 1.48 µM | 3.17 µM | 2.24 µM | 5.56 µM | 3.18 µM | 11.8 µM | 2.46 µM | 6.11 µM
